Test results from US6737383B1, “Herbicidal oxadiazolidines” (priority 1999, dated 2004).

Experiments:
[1] = tested on: bedstraw; test: Test B pre/postemergence bedstraw; type: in vivo, Galium aparine
In short: (§1)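 Herbicidal effect was estimated by eye on a ten-point control scale after plants spent twelve to sixteen days in a greenhouse following soil or foliar treatment. Foliar sprays targeted plants at one to four leaves; all doses were formulated in a non-phytotoxic solvent with surfactant.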

[2] = tested on: blackgrass; test: Test B pre/postemergence blackgrass; type: in vivo, Alopecurus myosuroides
In short: as §1

[3] = tested on: surinam grass; test: Test B pre/postemergence surinam grass; type: in vivo, Brachiaria decumbens
In short: as §1

[4] = tested on: cocklebur; test: Test B pre/postemergence cocklebur; type: in vivo, Xanthium strumarium
In short: as §1

[5] = tested on: corn; test: Test B pre/postemergence corn; type: in vivo, Zea mays
In short: as §1

[6] = tested on: crabgrass; test: Test B pre/postemergence crabgrass; type: in vivo, Digitaria sanguinalis
In short: as §1

[7] = tested on: giant foxtail; test: Test B pre/postemergence giant foxtail; type: in vivo, Setaria faberii
In short: as §1

[8] = tested on: morningglory; test: Test B pre/postemergence morningglory; type: in vivo, Ipomoea hederacea
In short: as §1

[9] = tested on: pigweed; test: Test B pre/postemergence pigweed; type: in vivo, Amaranthus retroflexus
In short: as §1

[10] = tested on: soybean; test: Test B pre/postemergence soybean; type: in vivo, Glycine max
In short: as §1

[11] = tested on: velvetleaf; test: Test B pre/postemergence velvetleaf; type: in vivo, Abutilon theophrasti
In short: as §1

[12] = tested on: wheat; test: Test B pre/postemergence wheat; type: in vivo, Triticum aestivum
In short: as §1

[13] = tested on: wild oat; test: Test B pre/postemergence wild oat; type: in vivo, Avena fatua
In short: as §1

[14] = tested on: rice; test: Test B flood test rice; type: in vivo, Oryza sativa
In short: (§2)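 Read-out is a visual response score from 0 (no effect) to 10 (complete control), assigned by comparison with untreated controls. Treatment was applied at the 2-leaf stage, and plants stayed in the greenhouse for twelve to sixteen days before scoring.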

[15] = tested on: smallflower flatsedge; test: Test B flood test smallflower flatsedge; type: in vivo, Cyperus difformis
In short: as §2

[16] = tested on: bamyardgrass; test: Test B flood test barnyardgrass; type: in vivo, Echinochloa crus-galli
In short: as §2

[17] = Postemergence, Rate 62 g/ha, scale 0 to 10, 0 is no effect, 10 is complete control
[18] = Preemergence, Rate 62 g/ha, scale 0 to 10 (0 no effect, 10 complete control)
[19] = Preemergence, Rate 125 g/ha, scale of 0 to 10 where 0 is no effect and 10 is complete control
[20] = Preemergence, Rate 250 g/ha, scale 0 to 10 (0 no effect, 10 complete control)
[21] = Preemergence, Rate 500 g/ha, scale of 0 to 10 where 0 is no effect and 10 is complete control
[22] = Postemergence, Rate 125 g/ha, scale of 0 to 10 where 0 is no effect and 10 is complete control
[23] = Postemergence, Rate 250 g/ha, scale of 0 to 10, 0 is no effect, 10 is complete control
[24] = Postemergence, Rate 500 g/ha, scale of 0 to 10 where 0 is no effect and 10 is complete control
[25] = Rate 62 g/ha, flood test species, Pre-emergence, visual evaluation after twelve to sixteen days
[26] = Rate 125 g/ha, under heading Pre-emergence, flood test species, visual evaluation after twelve to sixteen days
[27] = Rate 250 g/ha, Pre-emergence (flood test species), scale 0 to 10, 0 is no effect, 10 is complete control
[28] = Rate 500 g/ha, Pre-emergence section of Table B, 0 to 10 scale (0 no effect, 10 complete control)

CC(C)N(C(=O)n1oc(=O)n(CNC(=O)c2ccccc2)c1=O)c1ccccc1 [Compound 620]
Plant response rating, Bedstraw [1, 17]: 0
Bedstraw plant response rating [1, 18]: 0
Bedstraw plant response rating [1, 19]: 0
Plant response rating, Bedstraw [1, 20]: 0
Bedstraw plant response rating [1, 21]: 0
Plant response rating, Blackgrass [2, 17]: 0
Plant response rating, Blackgrass [2, 22]: 0
Blackgrass plant response rating [2, 23]: 0
Plant response rating, Blackgrass [2, 24]: 0
Blackgrass plant response rating [2, 18]: 0
Blackgrass plant response rating [2, 19]: 0
Plant response rating, Blackgrass [2, 20]: 0
Blackgrass plant response rating [2, 21]: 0
Plant response rating, B. signalgrass [3, 17]: 0
Plant response rating, B. signalgrass [3, 22]: 0
B. signalgrass plant response rating [3, 23]: 0
Plant response rating, B. signalgrass [3, 24]: 0
B. signalgrass plant response rating [3, 18]: 0
B. signalgrass plant response rating [3, 19]: 0
Plant response rating, B. signalgrass [3, 20]: 0
B. signalgrass plant response rating [3, 21]: 0
Plant response rating, Cocklebur [4, 17]: 0
Plant response rating, Cocklebur [4, 22]: 0
Cocklebur plant response rating [4, 23]: 0
Plant response rating, Cocklebur [4, 24]: 0
Cocklebur plant response rating [4, 18]: 0
Cocklebur plant response rating [4, 19]: 0
Plant response rating, Cocklebur [4, 20]: 0
Plant response rating, Cocklebur [4, 21]: 0
Plant response rating, Corn [5, 17]: 0
Plant response rating, Corn [5, 22]: 0
Corn plant response rating [5, 23]: 0
Plant response rating, Corn [5, 24]: 0
Corn plant response rating [5, 18]: 0
Corn plant response rating [5, 19]: 0
Plant response rating, Corn [5, 20]: 0
Plant response rating, Corn [5, 21]: 0
Plant response rating, Crabgrass [6, 17]: 1
Plant response rating, Crabgrass [6, 22]: 2
Plant response rating, Crabgrass [6, 24]: 3
Crabgrass plant response rating [6, 18]: 0
Crabgrass plant response rating [6, 19]: 0
Plant response rating, Crabgrass [6, 20]: 0
Plant response rating, Crabgrass [6, 21]: 6
Plant response rating, Giant foxtail [7, 17]: 0
Plant response rating, Giant foxtail [7, 22]: 0
Giant foxtail plant response rating [7, 23]: 0
Giant foxtail plant response rating [7, 18]: 0
Giant foxtail plant response rating [7, 19]: 0
Plant response rating, Giant foxtail [7, 20]: 2
Plant response rating, Giant foxtail [7, 21]: 9
Plant response rating, Morningglory [8, 17]: 2
Morningglory plant response rating [8, 23]: 2
Morningglory plant response rating [8, 18]: 0
Morningglory plant response rating [8, 19]: 0
Plant response rating, Morningglory [8, 20]: 0
Plant response rating, Morningglory [8, 21]: 0
Plant response rating, Redroot pigweed [9, 17]: 0
Plant response rating, Redroot pigweed [9, 22]: 0
Redroot pigweed plant response rating [9, 23]: 0
Redroot pigweed plant response rating [9, 18]: 0
Redroot pigweed plant response rating [9, 19]: 0
Plant response rating, Redroot pigweed [9, 20]: 0
Plant response rating, Redroot pigweed [9, 21]: 0
Plant response rating, Soybean [10, 17]: 1
Plant response rating, Soybean [10, 22]: 1
Soybean plant response rating [10, 23]: 1
Soybean plant response rating [10, 18]: 0
Soybean plant response rating [10, 19]: 0
Plant response rating, Soybean [10, 20]: 0
Plant response rating, Soybean [10, 21]: 0
Plant response rating, Velvetleaf [11, 17]: 0
Plant response rating, Velvetleaf [11, 22]: 0
Velvetleaf plant response rating [11, 23]: 0
Velvetleaf plant response rating [11, 18]: 0
Velvetleaf plant response rating [11, 19]: 0
Plant response rating, Velvetleaf [11, 20]: 0
Plant response rating, Velvetleaf [11, 21]: 0
Plant response rating, Wheat [12, 17]: 0
Plant response rating, Wheat [12, 22]: 0
Wheat plant response rating [12, 23]: 0
Wheat plant response rating [12, 18]: 0
Wheat plant response rating [12, 19]: 0
Plant response rating, Wheat [12, 20]: 0
Plant response rating, Wheat [12, 21]: 0
Plant response rating, Wild oats [13, 17]: 0
Plant response rating, Wild oats [13, 22]: 0
Wild oats plant response rating [13, 23]: 0
Wild oats plant response rating [13, 18]: 0
Wild oats plant response rating [13, 19]: 0
Plant response rating, Wild oats [13, 20]: 0
Plant response rating, Wild oats [13, 21]: 0
Plant response rating, Rice (0 to 10 scale, 0 is no effect, 10 is complete control) [14, 25]: 0
Rice plant response rating (0 to 10 scale, 0 is no effect, 10 is complete control) [14, 26]: 0
Rice plant response rating [14, 27]: 0
Rice plant response rating [14, 28]: 0
Plant response rating, S. Flatsedge (0 to 10 scale, 0 is no effect, 10 is complete control) [15, 25]: 0
S. Flatsedge plant response rating (0 to 10 scale, 0 is no effect, 10 is complete control) [15, 26]: 0
S. Flatsedge plant response rating [15, 27]: 0
S. Flatsedge plant response rating [15, 28]: 0
Plant response rating, Barnyardgrass (0 to 10 scale, 0 is no effect, 10 is complete control) [16, 25]: 0
Barnyardgrass plant response rating (0 to 10 scale, 0 is no effect, 10 is complete control) [16, 26]: 0
Barnyardgrass plant response rating [16, 27]: 0
Barnyardgrass plant response rating [16, 28]: 0
